Where two headings read alike, the source gives them in different places.
Key:
[1] = tested on: ErbB3 phosphorylation in AdrR cells; test: inhibitor dose response of ligand-induced ErbB3 phosphorylation (ELISA); assay type: cell-based, human; conditions: for IC50: Homo sapiens, 10 min
Method: Phosphorylation of ErbB3 is measured by ELISA (R&D Systems, DYC1769-5, per manufacturers protocol) and IC50 values are determined using Prism (GraphPad Software Inc.).

[2] = tested on: SKOV3 subcutaneous xenograft tumors; test: PI3K mutant SKOV3 subcutaneous xenograft tumors; assay type: in vivo, mouse; conditions: Ab #6 300 μg every three days; cisplatin 1.5 mg/kg; dosing after 30 day lag phase
Excerpt: SKOV3 (SKOV-3) is an ovarian cancer cell line that comprises a mutation that upregulates PI3K expression.

[3] = tested on: ACHN (a renal tumor cell line) xenograft tumors; test: ACHN xenograft combination therapy; assay type: in vivo, mouse; conditions: Ab #6 300 μg IP every three days; erlotinib 25 mg/kg orally once daily
Method: In a first experiment, mice bearing ACHN (a renal tumor cell line) xenograft tumors are prepared by establishing tumors subcutaneously in the flanks of nude mice (Charles River Laboratories).

[4] = tested on: A549 subcutaneous xenograft tumors; test: KRAS mutant A549 subcutaneous xenograft tumors; assay type: in vivo, mouse; conditions: Ab #6 300 μg every three days; erlotinib 25 mg/kg every day; taxol 20 mg/kg every 7 days
[5] = tested on: DU145 (a prostate tumor cell line) xenograft tumors; test: DU145 xenograft combination therapy; assay type: in vivo, mouse; conditions: Ab #6 300 μg IP every three days; taxol 20 mg/kg IP once per week
Method: In a second experiment, mice bearing DU145 (a prostate tumor cell line) xenograft tumors are prepared by establishing tumors subcutaneously in the flanks of nude mice (Charles River Laboratories). […] Again, tumor size is measured twice a week and measurements are used to calculate tumor volume.

[6] = target: ErbB3 (Homo sapiens, UniProt P21860); test: paratope mapping: binding of Ab #6 scFv mutants to ErbB3; conditions: scFv format; compared with binding to Protein A
Method: FIG. 36 presents data from paratope mapping experiments.
This format is used to investigate the effect on ErbB3 binding of alanine (and in some cases phenylalanine) substitution mutations in the CDR loops.
All of the mutations are made using standard recombinant DNA techniques and binding of the mutants to ErbB3 is tested using standard screening techniques known in the art.

[7] = target: T1, heregulin binding to ErbB3 on MALME-3M cells (Homo sapiens, UniProt P21860); test: biotinylated heregulin binding to MALME3M cells by FACS; assay type: cell-based; conditions: 5 μM antibody, 20 nM heregulin EGF
T1 construct: ErbB3 expressed on MALME-3M melanoma cells; host or cells: MALME-3M melanoma cells
Method: After 30 minutes, 50 μl of 40 nM biotinylated heregulin EGF is added to the cells and incubated for another 10 minutes on ice. This yields a final concentration of 5 μM antibody and 20 nM heregulin EGF. Cells are then washed twice with 500 μl BD stain buffer and incubated with 100 μl of a 1:200 dilution of streptavidin-PE (PE=phycoerythrin) (Invitrogen) in BD stain buffer for 45 minutes. Finally, cells are washed twice, resuspended in 300 μl of BD stain buffer and analyzed in a FACSCALIBUR flow cytometer. As a positive control, 1×10^5 MALME3M cells are incubated with 20 nM heregulin EGF for 10 minutes on ice, washed twice and incubated with a 1:200 dilution of streptavidin-PE for 45 minutes. In order to assess background staining from the streptavidin-PE conjugate, 1×10^5 MALME3M cells are incubated with 100 μl of a 1:200 dilution of streptavidin-PE only for 45 minutes.

Molecule: CS(=O)(=O)CCNCc1ccc(-c2ccc3ncnc(Nc4ccc(OCc5cccc(F)c5)c(Cl)c4)c3c2)o1 [Lapatinib]
- IC50 ([1]; 25 nM BTC, read-out: IC50, BTC-induced ErbB3 phosphorylation): 360 nM
- IC50 ([1]; 25 nM HRG, read-out: IC50, HRG-induced ErbB3 phosphorylation): 150 nM

Molecule: N.N.[Cl][Pt][Cl] [cisplatin]
- tumor growth inhibition [2]: able to inhibit the growth of the SKOV3 xenografts

Molecule: C#Cc1cccc(Nc2ncnc3cc(OCCOC)c(OCCOC)cc23)c1 [erlotinib, reference compound]
- inhibition of tumor growth (tumor volume) [3]: inhibit tumor growth
- tumor growth inhibition [4]: insensitive

Molecule: CC(=O)O[C@H]1C(=O)[C@@]2(C)[C@H]([C@H](OC(=O)c3ccccc3)[C@]3(O)C[C@H](OC(=O)[C@H](O)[C@@H](NC(=O)c4ccccc4)c4ccccc4)C(C)=C1C3(C)C)[C@]1(OC(C)=O)CO[C@@H]1C[C@@H]2O [taxol, reference compound]
- inhibition of tumor growth (tumor volume) [5]: inhibited tumor growth
- tumor growth inhibition [4]: insensitive

Molecule: Pertuzumab
- IC50, BTC-induced ErbB3 phosphorylation ([1]; 25 nM BTC, 10 minutes): did not inhibit

B1: M1: Ab #6 scFv mutant, H1 loop, Thr28Ala (antibody, chains of the INN, looked up, variant H:T28A, V domains shown)
VH: EVQLLESGGGLVQPGGSLRLSCAASGFAFSHYVMAWVRQAPGKGLEWVSSISSSGGWTLYADSVKGRFTISRDNSKNTLYLQMNSLRAEDTAVYYCTRGLKMATIFDYWGQGTLVTVSS
VL: QSALTQPASVSGSPGQSITISCTGTSSDVGSYNVVSWYQQHPGKAPKLIIYEVSQRPSGVSNRFSGSKSGNTASLTISGLQTEDEADYYCCSYAGSSIFVIFGGGTKVTVL
modifications: scFv
- Effect on ErbB3 Binding of Ab #6 Mutations [6]: no effect on binding

B2: M5: Ab #6 scFv mutant, CDR H1, Tyr32Phe (antibody, chains of the INN, looked up, variant H:Y32F, V domains shown)
VH: EVQLLESGGGLVQPGGSLRLSCAASGFTFSHFVMAWVRQAPGKGLEWVSSISSSGGWTLYADSVKGRFTISRDNSKNTLYLQMNSLRAEDTAVYYCTRGLKMATIFDYWGQGTLVTVSS
VL: QSALTQPASVSGSPGQSITISCTGTSSDVGSYNVVSWYQQHPGKAPKLIIYEVSQRPSGVSNRFSGSKSGNTASLTISGLQTEDEADYYCCSYAGSSIFVIFGGGTKVTVL
modifications: scFv
- Effect on ErbB3 Binding of Ab #6 Mutations [6]: no effect on binding

B3: M4: Ab #6 scFv mutant, CDR H1, Tyr32Ala (antibody, chains of the INN, looked up, variant H:Y32A, V domains shown)
VH: EVQLLESGGGLVQPGGSLRLSCAASGFTFSHAVMAWVRQAPGKGLEWVSSISSSGGWTLYADSVKGRFTISRDNSKNTLYLQMNSLRAEDTAVYYCTRGLKMATIFDYWGQGTLVTVSS
VL: QSALTQPASVSGSPGQSITISCTGTSSDVGSYNVVSWYQQHPGKAPKLIIYEVSQRPSGVSNRFSGSKSGNTASLTISGLQTEDEADYYCCSYAGSSIFVIFGGGTKVTVL
modifications: scFv
- Effect on ErbB3 Binding of Ab #6 Mutations [6]: large decrease in binding (based on the three groupings shown in FIG. 36)

B4: M3: Ab #6 scFv mutant, CDR H1, His31Ala (antibody, chains of the INN, looked up, variant H:H31A, V domains shown)
VH: EVQLLESGGGLVQPGGSLRLSCAASGFTFSAYVMAWVRQAPGKGLEWVSSISSSGGWTLYADSVKGRFTISRDNSKNTLYLQMNSLRAEDTAVYYCTRGLKMATIFDYWGQGTLVTVSS
VL: QSALTQPASVSGSPGQSITISCTGTSSDVGSYNVVSWYQQHPGKAPKLIIYEVSQRPSGVSNRFSGSKSGNTASLTISGLQTEDEADYYCCSYAGSSIFVIFGGGTKVTVL
modifications: scFv
- Effect on ErbB3 Binding of Ab #6 Mutations [6]: no effect on binding

B5: Ab/Fab #3: a Fab version of Ab #3 (antibody, V domains shown)
VH: EVQLLESGGGLVQPGGSLRLSCAASGFTFSAYNMRWVRQAPGKGLEWVSVIYPSGGATRYADSVKGRFTISRDNSKNTLYLQMNSLRAEDTAVYYCARGYYYYGMDVWGQGTLVTVSS
VL: QSVLTQPPSASGTPGQRVTISCSGSDSNIGRNYIYWYQQFPGTAPKLLIYRNNQRPSGVPDRISGSKSGTSASLAISGLRSEDEAEYHCGTWDDSLSGPVFGGGTKLTVL
- inhibition of heregulin binding to ErbB3 [7]: able to inhibit heregulin binding to ErbB3

Source: patent publication US8691225B2, “Antibodies against the ectodomain of ErbB3 and uses thereof” (Merrimack Pharmaceuticals, Inc., priority 2007, dated 2014)
